Peptide text beside a SMILES is read from it. GABA = NCCCC(=O)O
Key:
Type in all cases: binding
[1] = test system: CRF1, CRF2; assay: Displacement of 125I labeled CRF from CRF receptor subtypes, recombinant cells; settings: Receptor CRF1, CRF2 (one value printed for both), displacing radiolabeled CRF
Description: (§1) Determination of IC50 for labeled peptides. […] In order to fully dissolve the peptide, the sample was reconstituted in 20 uL DMSO, vortexing well to ensure that all powder was completely dissolved, and then adding 0.48 mL of double distilled water. The stock solution was aliquoted to avoid repeated freezing and thawing of peptide. Unused aliquots were stored at −20° C. (protected from light) for maximum 24 hr.
(§2) Data for native and labeled peptides were analyzed by non-linear curve fitting. This included statistical evaluation of fit and calculation of IC50 and Ki values.

[2] = target: T1, CRF1 (Homo sapiens, UniProt P34998); assay: Displacement of 125I labeled sauvagine from CRF1, recombinant cells
T1 construct: expressed in transfected cells
T1 sequence (P34998 24-415): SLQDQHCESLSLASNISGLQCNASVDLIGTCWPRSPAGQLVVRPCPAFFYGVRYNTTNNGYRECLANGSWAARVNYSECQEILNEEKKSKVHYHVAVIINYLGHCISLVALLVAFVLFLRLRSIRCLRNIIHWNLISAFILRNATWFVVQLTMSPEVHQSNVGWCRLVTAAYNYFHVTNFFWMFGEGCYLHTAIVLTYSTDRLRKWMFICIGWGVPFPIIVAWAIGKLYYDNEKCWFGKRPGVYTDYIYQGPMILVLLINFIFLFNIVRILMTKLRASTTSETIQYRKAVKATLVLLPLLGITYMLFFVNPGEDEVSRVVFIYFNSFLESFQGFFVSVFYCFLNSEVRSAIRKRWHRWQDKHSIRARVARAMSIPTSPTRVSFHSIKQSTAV
Description: as §1, §2

[3] = target: T2, CRF2 (Homo sapiens, UniProt Q13324); assay: Displacement of 125I labeled sauvagine from CRF2, recombinant cells
T2 construct: expressed in transfected cells
T2 sequence (Q13324 1-411): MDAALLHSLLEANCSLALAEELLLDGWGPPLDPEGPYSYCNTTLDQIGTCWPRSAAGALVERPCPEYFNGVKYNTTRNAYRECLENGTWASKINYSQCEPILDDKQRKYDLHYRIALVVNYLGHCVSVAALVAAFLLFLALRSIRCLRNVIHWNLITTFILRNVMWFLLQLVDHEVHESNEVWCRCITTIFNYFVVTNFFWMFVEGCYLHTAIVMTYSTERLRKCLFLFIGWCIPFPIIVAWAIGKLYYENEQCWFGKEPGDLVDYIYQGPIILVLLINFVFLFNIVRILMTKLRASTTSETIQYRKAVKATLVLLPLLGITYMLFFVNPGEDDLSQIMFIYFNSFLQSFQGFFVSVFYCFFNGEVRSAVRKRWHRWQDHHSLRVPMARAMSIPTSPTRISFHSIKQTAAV
Description: as §1, §2

| Molecule | Ki [1] [nM] | Ki [2] [nM] | Ki [3] [nM] |
| --- | --- | --- | --- |
| CC[C@H](C)[C@H](NC(=O)[C@@H](NC(=O)[C@H](CC(=O)O)NC(=O)[C@H](CC(C)C)NC(=O)[C@H](CC(C)C)NC(=O)[C@H](CC(C)C)NC(=O)[C@H](CCCNC(=N)N)NC(=O)[C@H](CC(N)=O)NC(=O)[C@H](CC(N)=O)NC(=O)[C@H](C)NC(=O)[C@H](C)NC(=O)[C@H](CCC(N)=O)NC(=O)[C@H](CCC(N)=O)NC(=O)[C@H](CCCCN)NC(=O)[C@H](CCC(=O)O)NC(=O)[C@H](CCCCN)NC(=O)[C@H](CCC(=O)O)NC(=O)[C@H](CCC(N)=O)NC(=O)[C@H](CCCCN)NC(=O)[C@H](CCC(=O)O)NC(=O)[C@@H](NC(=O)[C@H](CCC(=O)O)NC(=O)[C@@H](NC(=O)[C@H](CCSC)NC(=O)[C@H](CCCCN)NC(=O)[C@H](CCCNC(=N)N)NC(=O)[C@H](CC(C)C)NC(=O)[C@H](CC(C)C)NC(=O)[C@H](CCC(=O)O)NC(=O)[C@H](CC(C)C)NC(=O)[C@H](CO)NC(=O)[C@H](CC(C)C)NC(=O)[C@H](CC(=O)O)NC(=O)[C@@H](NC(=O)[C@H](CO)NC(=O)[C@@H](NC(=O)[C@@H]1CCCN1C(=O)[C@@H]1CCCN1C(=O)CNC(=O)[C@@H]1CCC(=O)N1)[C@@H](C)CC)[C@@H](C)CC)[C@@H](C)CC)[C@@H](C)CC)[C@@H](C)O)C(N)=O [Sauvagine, sauvagine] | 7.9 |  |  |
| CC[C@H](C)[C@H](NC(=O)[C@H](CO)NC(=O)[C@H](CC(C)C)NC(=O)[C@H](CO)NC(=O)[C@@H]1CCCN1C(=O)[C@H](CC(N)=O)NC(=O)[C@@H](N)CC(=O)O)C(=O)N[C@@H](CC(=O)O)C(=O)N[C@@H](CC(C)C)C(=O)N[C@H](C(=O)N[C@@H](Cc1ccccc1)C(=O)N[C@@H](Cc1cnc[nH]1)C(=O)N[C@@H](CC(C)C)C(=O)N[C@@H](CC(C)C)C(=O)N[C@@H](CCCNC(=N)N)C(=O)N[C@H](C(=O)N[C@@H](CC(C)C)C(=O)N[C@@H](CC(C)C)C(=O)N[C@@H](CCC(=O)O)C(=O)N[C@@H](CC(C)C)C(=O)N[C@@H](C)C(=O)N[C@@H](CCCNC(=N)N)C(=O)N[C@H](C(=O)N[C@@H](CCC(N)=O)C(=O)N[C@@H](CO)C(=O)N[C@@H](CCC(N)=O)C(=O)N[C@@H](CCCNC(=N)N)C(=O)N[C@@H](CCC(=O)O)C(=O)N[C@@H](CCCNC(=N)N)C(=O)N[C@@H](C)C(=O)N[C@@H](CCC(=O)O)C(=O)N[C@@H](CCC(N)=O)C(=O)N[C@@H](CC(N)=O)C(=O)N[C@@H](CCCNC(=N)N)C(=O)N[C@H](C(=O)N[C@H](C(=O)N[C@@H](Cc1ccccc1)C(=O)N[C@@H](CC(=O)O)C(=O)N[C@@H](CO)C(=O)N[C@H](C(N)=O)C(C)C)[C@@H](C)CC)[C@@H](C)CC)[C@@H](C)O)[C@@H](C)O)[C@@H](C)O [urocortin] (H-DNPSLSIDLTFHLLRTLLELARTQSQRERAEQNRIIFDSV-NH2) |  | 0.64 | 4.3 |
| fluoresceinyl-sauvagine ({Fluorescein-GABA}-GPPISIDLSLELLRKMIEIEKQEKEKQQAANNRLLLDTI-NH2; listed as Xenopus tropicalis) [Fluo*-sauvagine] | 3.8 |  |  |

Reference: patent US6680367B1, “Fluorescent CRF receptor-binding peptides” (Advanced Bioconcept Company, priority 1995, dated 2004)
